Source: patent publication US20120015901A1, “METHODS AND PREPARATIONS FOR PROTECTING CRITICALLY ILL PATIENTS” (priority 2009, published 2012)
Where two headings read alike, the source gives them in different places.

Columns and labels:
[1] = tested on: autophagy; assay: Yeast autophagy measurements; type: cell-based
Excerpt: Autophagy was monitored either by vacuolar localization of Atg8p using fluorescence microscopy of cells expressing an EGFP-Atg8 fusion protein (T. Kirisako et al. (1999) J Cell Biol 147, 435-446.) or by alkaline phosphatase (ALP) activity according to Kissova et al. (Kissova at al. (2004) J Biol Chem 279, 39068-39074) using BY4741 wild type strain transformed with and selected for stable insertion of pTN9 HindIII fragment (confirmed by PCR). In order to correct for intrinsic (background) ALP activity, BY4741 (without pTN9) have been simultaneously processed and ALP activity subtracted. For generation of EGFP-ATG8 constructs see section on Molecular Biology.

[2] = tested on: pre-aged wild type yeast cells; assay: Stress of pre-aged yeast by heat shock or hydrogen peroxide; type: cell-based; settings: aged to day 24 with 4 mM spermidine; 4 h, 3 mM H2O2 or 42° C.
Experimental: Survival of pre-aged wild type cells stressed for 4 h with hydrogen peroxide (3 mM H2O2) or heat shock (42° C.) compared to unstressed cells. Cells were chronologically aged until day 24 with or without addition of 4 mM spermidine. Data represent means±SEM (n=4). *p<0.05 and ***p<0.001. B) Free thiol group concentration (indicative of oxidative stress level) in blood serum of aging mice with or without (control) supplementation of drinking water with 0.3 and 3 mM spermidine for 200 days. Data represent means±SEM (n=3). **p<0.01. (C) Intracellular spermidine of mouse liver cells, obtained from the same mice used for RSH measurements presented in (B). Data represent means±SEM (n=3).

[3] = tested on: parentally fed, hyperglycemic, burn-injured rabbits
Excerpt: Our research group previously developed an animal model of critical illness that has shown to mimic the dynamic endocrine, immunological and metabolic changes characteristic of human critical illness. In this animal model we investigated the effect of critical illness on spermidine levels and the effects of spermidine-administration during critical illness on survival, organ function (clinical, biochemical, and cyto/histopathological effects), and on metabolic, inflammatory/immunological and cellular pathways. Animals were treated according to the “Principals of Laboratory Animal Care” formulated by the U.S. National Society for Medical Research and the “Guide for the Care and Use of Laboratory Animals” prepared by the National Institutes of Health. The protocol was approved by the K.U. Leuven Ethical Review Board for Animal Research. Adult male New Zealand White rabbits, weighing approximately 3 kg, were purchased from a local rabbitry, were housed individually with free access to water, hay and regular rabbit chow, and were exposed to artificial light for 14 h per day. This animal model of prolonged critical illness mimics the human condition (Weekers et al. (2003) Endocrinol 144, 5329-5338). Indeed, the critically ill animals undergo the same metabolic, immunological and endocrine disturbances and development of organ failure and muscle wasting as the human counterpart.
In our animal model, critical illness was induced by placing intravascular catheters, selectively destroying pancreatic β-cells by alloxan, followed by burn injury. […] The administration of alloxan was necessary to control both blood glucose and plasma insulin levels independently. The application of the burn wound is done 48 hours after alloxan-injection, at which time alloxan has done irreversible damage to the β-cells (selective β-cell necrosis, phase 4 after alloxan-injection). After imposing a burn wound, animals were brought to […], because this reflects most the human situation of critical illness. Non-injured, healthy rabbits served as control.
The effects of spermidine administration were investigated in parentally fed, hyperglycemic, burn-injured rabbits. The rabbits were purchased from a local rabbitry and weighed approximately 3-3.5 kg. The burn injury experiments were performed analoguous to those described above. After imposing the burn wound, animals received a continuous infusion of saline or spermidine (low dose ranging from 0.3-3 mg/day or high dose ranging from 30-300 mg/day).
At 09:00±1 h of […] (FIG. 3) animals were weighed, and under general anesthesia (30 mg/kg ketamine i.m. [Imalgene 1000; Merial, Lyon, France]; 0.15 ml/kg medetomidine i.m. [Orion, Espoo, Finland]), an ice-cold 10% solution of alloxan-monohydrate (150 mg/kg; Alloxan; Sigma-Aldrich, Bornem, Belgium) was injected slowly via a marginal ear vein. Afterward, the animals had free access to regular rabbit chow, hay and drinking water enriched with glucose to face alloxan-induced acute hypoglycemia.
At 10:00±1 h of Day 0 (FIG. 3), glycemia was measured to confirm hyperglycemia after alloxan (irreversible phase 4 after alloxan-injection). When glycemia exceeded 300 mg/dl, animals were considered eligible for the study. Under general anesthesia (see above), supplemented with 1.5 volume % isoflurane (Isoba Vet.; Schering-Plough, Brussels, Belgium) inhalation, animals were shaved and catheters were placed into the right jugular vein for intravenous infusion (4F; Vygon, Ecouen, France) and into the right carotid artery for blood sampling (5 Ch; Sherwood Medical, Tullamore, Ireland). A paravertebral block (5 ml Xylocaine 1%; Astra Zeneca, Brussels, Belgium) was performed and a full thickness burn injury of 20% body-surface area was imposed. Animals were then fitted to a homemade jacket to secure catheters and immediately returned to their cages.

[4] = tested on: general HAT activity in extracts of mammalian nuclei; assay: HAT activity assay, nuclear extract of HeLa-cells; type: biochemical; settings: extracts of mammalian nuclei (data not shown); spermidine 100 mM
Experimental: For HAT-activity determination the commercially available HAT Activity Colorimetric Assay KIT from BioVision (Bio Vision K332-100) was employed. HAT assays were performed according to the manufacturer's protocol. In brief, assays were performed with each 15 μg of yeast nuclear extract or nuclear extract of HeLa-cells (Bio Vision K332-100-4), respectively. Spermidine was added at a final concentration of 100 mM 15 minutes after assay initiation. Development of tetrazolium dye was measured by absorption at 440 nm using a GeniosPro plate reader (Tecan). Background readings were done with samples without NADH generating enzyme, giving the nuclear extracts unspecific background activity and eliminate any possible negative effects of spermidine addition on the assay itself. […] Regression coefficients of R^2>0.99 were obtained. Calculated slopes of spermidine treated samples were compared to slopes of untreated samples which were set to a relative activity of 100%.

[5] = preliminary results, spermidine versus saline

## NCCCCNCCCN [spermidine]
[1]
  autophagy: strongly induces autophagy
[2]
  resistance against stress inflicted by heat shock or H2O2 treatment: strong resistance
[3]; 0.3 to 3 mg spermidine per day (groups D, E; 2 groups of 7 animals)
  mortality: 28%
[3]; 30 to 300 mg spermidine per day (groups A, B, C; 3 groups of 8 animals)
  mortality: 12.5%
[3]; already seen with doses of 1-200 mg spermidine per kg per day
  plasma and tissue levels of spermidine: could restore both plasma and tissue levels of spermidine
[3]; benefit most pronounced for the higher doses
  survival rate: marked improved survival rate
[3]; days following the initial hit
  AST levels (marker of liver dysfunction): rapid and profound decrease in AST-levels
[3]; high dose 30-300 mg/day, low dose 0.3-3 mg/day
  rise in plasma creatinine (marker of kidney function): could be prevented
[3]; higher doses 30-300 mg/day
  plasma spermidine concentration: maintained or increased the plasma spermidine to (supra)normal values
[3]; higher doses 30-300 mg/day/rabbit
  mortality of the animals (in words): reduce the mortality
[3]; low doses 0.3-3 mg/day
  plasma spermidine concentration: minimal or no effect
[3]; low doses 0.3-3 mg/day/rabbit
  mortality of the animals (in words): reduce the mortality
[3]; low doses of spermidine
  kidney protection: renoprotection
[3]; [5]
  autophagy (key proteins): stimulation of autophagy
  mitochondrial function: improvement of mitochondrial function
[3]; spermidine infusion
  rise in ureum (marker of kidney dysfunction and muscle wasting): could also be prevented
[3]; spermidine infusion versus saline
  blood pH and lactate levels during illness: maintain a normal pH and normal lactate levels
[4]
  general HAT activity: efficiently inhibited
